PubChem BioAssay AID1963856 (Molecular Pharmacology Branch, DTP, NCI, 2024)

Tested on: LG0567-F671-PDC KRAS tumor spheroid viability
Test: Anticancer human tumor LG0567-F671-PDC patient-derived lung adenocarcinoma cell line growth inhibition [KRAS2]
Details: spheroids with HUVEC and MSC; for IC50: curve of first compound; for viability, T/C: stronger effect = lower value
From the text: Multicellular complex tumor spheroid response to RAS pathway inhibitors in combination with a targeted agents in patient-derived cell lines with oncogenic KRAS variants from multiple cancer types
A high-throughput screen of multi-cell type tumor spheroids was designed to identify active combinations of targeted small molecules and KRAS pathway inhibitors. Complex spheroids include a stromal component modeled by human endothelial cells (HUVEC) and fibroblasts modeled by human mesenchymal stem cells (MSCs). The concentration ranges selected for each drug and investigational agent were based upon clinically achievable concentrations if the clinical Cmax of the agent was known.
Compounds. The drugs and investigational agents: BI-3406 (NSC825286), BAY-293 (NSC824723), batoprotafib (TNO155; NSC825523), sotorasib (AMG 510; NSC818433), MRTX1257 (NSC819558), elimusertib (BAY 1895344; NSC800525), molibresib (GSK525762; NSC774829), temuterkib (LY3214996; NSC803410), venetoclax (NSC766270), alisertib (NSC759677), olaparib (NSC753686), talazoparib (NSC767125), erdafitinib (NSC781556), ipatasertib (NSC767898), cabozantinib (NSC761068), nintedanib (NSC756659), abemaciclib (NSC768073), docetaxel (NSC628503), trametinib (NSC758246), and sapanisertib (NSC764658) were obtained from the National Cancer Institute (NCI) Developmental Therapeutics Program Chemical Repository. The FDA-approved anticancer drug set is available from the Developmental Therapeutics Program. […] The stock solutions were prepared in dimethyl sulfoxide (DMSO, Sigma-Aldrich, St. Louis, MO, cat. D2650) at 800-fold the tested concentration and stored at -70 degrees C prior to their use. All drugs and investigational agents were tested over a range starting from a high concentration at or near the clinical Cmax and decreasing in half-log increments. If the clinical Cmax for an agent had not been determined, the highest concentration tested was 10 microM.
Cell Culture. All cells were maintained in an incubator at 37 degrees C and 5% CO2 with 95% humidity. The PDC lines were cultured according to standard operating procedures established by the NCI PDMR (https://pdmr.cancer.gov/sops/default.htm). Briefly, all PDCs were thawed and cultured in Matrigel-coated flasks prepared with a working solution of 1X Ham's F-12 nutrient mix, without supplementation (Invitrogen, Waltham, MA, cat. 11765054), 100 U/mL penicillin-streptomycin (Invitrogen, cat. 15140122), and 2.5% Matrigel (Corning Inc., Corning, NY, cat. 354248) for the first three passages. All PDCs were cultured in complete DMEM/F-12 media containing advanced DMEM/F-12 (Invitrogen, cat. 12634028), 4.9% defined fetal bovine serum, heat inactivated (HyClone Laboratories Inc., Logan, UT, cat. SH30070.03HI), 389 ng/mL hydrocortisone (Sigma-Aldrich, cat. H4001), 9.7 ng/mL human EGF recombinant protein (Invitrogen, cat. PHG0313), 23.4 microg/mL adenine (Sigma-Aldrich, cat. A2786), 97.3 U/mL penicillin-streptomycin (Invitrogen, cat. 15140122), 1.9 mM L-glutamine (Invitrogen, cat. 25030081), and 9.7 microM Y-27632 dihydrochloride (Tocris Bioscience, Bristol, United Kingdom, cat. 1254). The PDCs were cultured in complete DMEM/F12 media without 9.7 microM Y-27632 dihydrochloride for at least two passages prior to the screen. The established cell line HOP-62 was cultured in RPMI 1640 medium, HEPES (Invitrogen, cat. 22400105) with 10% defined fetal bovine serum (HyClone Laboratories Inc., cat. SH30070.03) and 2 mM L-glutamine (Invitrogen, cat. 25030081). The pooled donor HUVEC were cultured in endothelial cell growth medium 2 (PromoCell, Heidelberg, Germany, cat. C-22011) and the hMSC were cultured in mesenchymal stem cell growth medium 2 (PromoCell, cat. C-28009). For all experiments, HUVEC and hMSC were used at passages </=5, while the malignant cell lines were used at passages </=15. […]

[1] = second compound 0.1 µM, first compound 0.0316 µM
[2] = second compound 0.1 µM, first compound 0.1 µM
[3] = second compound 0.316 µM, first compound 0.0316 µM
[4] = second compound 0.316 µM, first compound 0.1 µM
[5] = second compound 1 µM, first compound 0.0316 µM
[6] = second compound 1 µM, first compound 0.1 µM
[7] = second compound 3.16 µM, first compound 0.0316 µM
[8] = second compound 3.16 µM, first compound 0.1 µM
[9] = second compound 10 µM, first compound 0.0316 µM
[10] = second compound 10 µM, first compound 0.1 µM
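Note: drug exposure lasted seven days after spheroids formed for three days.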
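Throughout, for viability, T/C: 100% = DMSO vehicle control viability.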

With `O=C(c1cc(Cc2n[nH]c(=O)c3ccccc23)ccc1F)N1CCN(C(=O)C2CC2)CC1` + COc1cc2nc(C)nc(NC(C)c3cc(N)cc(C(F)(F)F)c3)c2cc1OC1CCOC1 the IC50 (second compound 0.1 µM) was > 10 µM, the IC50 (second compound 0.316 µM) was > 10 µM and the IC50 (second compound 1 µM) was > 10 µM. For the same compound, the IC50 (second compound 3.16 µM) was > 10 µM, the IC50 (second compound 10 µM) was > 10 µM and the viability, T/C [1] was 84.3%. It also gave a viability, T/C [2] of 108%, a viability, T/C (second compound 0.1 µM, first compound 0.316 µM) of 81.8% and a viability, T/C (second compound 0.1 µM, first compound 1 µM) of 109%. It also gave a viability, T/C (second compound 0.1 µM, first compound 3.16 µM) of 96.8%, a viability, T/C (second compound 0.1 µM, first compound 10 µM) of 70.3% and a viability, T/C [3] of 68.5%. The viability, T/C [4] was 58.5%, the viability, T/C (second compound 0.316 µM, first compound 0.316 µM) was 67.8% and the viability, T/C (second compound 0.316 µM, first compound 1 µM) was 64%. For the same compound, the viability, T/C (second compound 0.316 µM, first compound 3.16 µM) was 57.4%, the viability, T/C (second compound 0.316 µM, first compound 10 µM) was 70.5% and the viability, T/C [5] was 102%. For the same compound, the viability, T/C [6] was 117%, the viability, T/C (second compound 1 µM, first compound 0.316 µM) was 98% and the viability, T/C (second compound 1 µM, first compound 1 µM) was 94.1%. The viability, T/C (second compound 1 µM, first compound 3.16 µM) was 95%, the viability, T/C (second compound 1 µM, first compound 10 µM) was 81.5% and the viability, T/C [7] was 69.3%. It also gave a viability, T/C [8] of 68.7%, a viability, T/C (second compound 3.16 µM, first compound 0.316 µM) of 72.8% and a viability, T/C (second compound 3.16 µM, first compound 1 µM) of 63%. For the same compound, the viability, T/C (second compound 3.16 µM, first compound 3.16 µM) was 68.8%, the viability, T/C (second compound 3.16 µM, first compound 10 µM) was 61.5% and the viability, T/C [9] was 78.7%. The viability, T/C [10] was 63.2%, the viability, T/C (second compound 10 µM, first compound 0.316 µM) was 68% and the viability, T/C (second compound 10 µM, first compound 1 µM) was 63.2%. The viability, T/C (second compound 10 µM, first compound 3.16 µM) was 53.1% and the viability, T/C (second compound 10 µM, first compound 10 µM) was 56.1%.

With `Cn1ncnc1[C@H]1c2n[nH]c(=O)c3cc(F)cc(c23)N[C@@H]1c1ccc(F)cc1` + C=CC(=O)N1CCN(c2nc(=O)n(-c3c(C)ccnc3C(C)C)c3nc(-c4c(O)cccc4F)c(F)cc23)C(C)C1 the IC50 (second compound 0.1 µM) was < 0.000316 µM, the IC50 (second compound 0.316 µM) was < 0.000316 µM and the IC50 (second compound 1 µM) was < 0.000316 µM. For the same compound, the IC50 (second compound 3.16 µM) was < 0.000316 µM, the IC50 (second compound 10 µM) was < 0.000316 µM and the viability, T/C (second compound 0.1 µM, first compound 0.000316 µM) was 24.7%. For the same compound, the viability, T/C (second compound 0.1 µM, first compound 0.001 µM) was 27.1%, the viability, T/C (second compound 0.1 µM, first compound 0.00316 µM) was 21.8% and the viability, T/C (second compound 0.1 µM, first compound 0.01 µM) was 21.3%. The viability, T/C [1] was 23.8%, the viability, T/C [2] was 24.4% and the viability, T/C (second compound 0.316 µM, first compound 0.000316 µM) was 25.5%. The viability, T/C (second compound 0.316 µM, first compound 0.001 µM) was 26.2%, the viability, T/C (second compound 0.316 µM, first compound 0.00316 µM) was 23.1% and the viability, T/C (second compound 0.316 µM, first compound 0.01 µM) was 20.8%. The viability, T/C [3] was 24.1%, the viability, T/C [4] was 21.6% and the viability, T/C (second compound 1 µM, first compound 0.000316 µM) was 29.7%. For the same compound, the viability, T/C (second compound 1 µM, first compound 0.001 µM) was 27.1%, the viability, T/C (second compound 1 µM, first compound 0.00316 µM) was 27.1% and the viability, T/C (second compound 1 µM, first compound 0.01 µM) was 20.9%. For the same compound, the viability, T/C [5] was 23.6%, the viability, T/C [6] was 22.8% and the viability, T/C (second compound 3.16 µM, first compound 0.000316 µM) was 24.8%. For the same compound, the viability, T/C (second compound 3.16 µM, first compound 0.001 µM) was 25.9%, the viability, T/C (second compound 3.16 µM, first compound 0.00316 µM) was 25.2% and the viability, T/C (second compound 3.16 µM, first compound 0.01 µM) was 25.5%. The viability, T/C [7] was 23.4%, the viability, T/C [8] was 21.1% and the viability, T/C (second compound 10 µM, first compound 0.000316 µM) was 21.9%. The viability, T/C (second compound 10 µM, first compound 0.001 µM) was 23.5%, the viability, T/C (second compound 10 µM, first compound 0.00316 µM) was 24.6% and the viability, T/C (second compound 10 µM, first compound 0.01 µM) was 20.2%. For the same compound, the viability, T/C [9] was 19.6% and the viability, T/C [10] was 20.1%.

In the case of `CC(=O)OC12COC1CC(O)C1(C)C(=O)C(O)C3=C(C)C(OC(=O)C(O)C(NC(=O)OC(C)(C)C)c4ccccc4)CC(O)(C(OC(=O)c4ccccc4)C21)C3(C)C` (stereo unspecified), the viability, T/C (compound 0.01 µM) is reported as 67% [middle of 5 runs], the viability, T/C (compound 0.0316 µM) is reported as 57.6% [middle of 5 runs] and the viability, T/C (compound 0.1 µM) is reported as 63.3% [middle of 5 runs]. The viability, T/C (compound 0.316 µM) was 63.1% [middle of 5 runs], the viability, T/C (compound 1 µM) was 73.7% [middle of 5 runs] and the viability, T/C (compound 3.16 µM) was 70.1% [middle of 5 runs].
